Measured values taken from US20050245527A1, “Nitrogen containing heterocyclic compounds and medicines containing the same” (priority 2002, published 2005).

What was measured:
[1] = test system: left saphenous nerve of rats (ectopic firing); test: Inhibition of ectopic firing; type: in vivo; conditions: Rattus norvegicus, iv; rats with cut left saphenous nerve, urethane anesthesia, compound via catheter in right cervical vein, number of firings in 10 seconds; read-out: Inhibition of ectopic firing (ID50)
Experimental: <Inhibition of Ectopic Firing>
(1) The inhibitory effect on ectopic firing was evaluated by the following method, with reference to Burchiel, K J., Exp. Neurol., 102, 249-253 (1988).
(2) The left saphenous nerve of rats, in which ectopic firing was observed, was cut near the knee joint, and approximately 3 mm was cut off to avoid reattachment of the cut nerve. After more than a week, the left saphenous nerve was exposed under urethane (1 g/kg body weight) anesthesia, and the proximal part up to approximately 1 cm from the cut site was detached from the surrounding tissue. A catheter was inserted in the right cervical vein beforehand for administration of the compound.
(3) The detached nerve was placed on a platinum hook electrode and wetted with liquid paraffin to avoid drying of the nerve. The electrode was connected to a microelectrode amplifier, and the change in potential was recorded from an oscilloscope through an A/D converter onto a computer. The recorded nerve firing was evaluated based on the number of firings in 10 seconds, using analyzing software (AcqKnowledge).

sodium channels = type: cell-based; conditions: read-out: IC50 (μM), sodium channel-inhibiting activity; rat fetal cultured hippocampal neurons, SBFI fluorescence in the presence of 4-aminopyridine, 5 minutes after addition, 1 μM tetrodotoxin = 100%

Row | Compound | ED50 [1] [mg/kg] | IC50 (sodium channels) [µM]
1 | O=c1cncc(CCN2CCC(COc3ccc(F)cc3)CC2)[nH]1 [Example 246, 6-[2-[4-(4-Fluorophenoxymethyl)piperidino]ethyl]-1H-pyrazin-2-one] | 0.5 to 1 | 
2 | O=c1[nH]ccnc1CCN1CCC(COc2ccccc2F)CC1 [Example 232, 3-[2-[4-(2-Fluorophenoxymethyl)piperidino]ethyl]-1H-pyrazin-2-one] | < 0.5 | 
3 | O=C(CC1CCN(Cc2ncc[nH]c2=O)CC1)c1ccccc1F [Example 139, 3-[4-[2-(2-Fluorophenyl)-2-oxoethyl]piperidino]methyl-1H-pyrazin-2-one] | 0.5 to 1 | 
4 | O=c1[nH]ccnc1CN1CCC(OCc2ccccc2F)CC1 [Example 141, 3-[4-(2-Fluorobenzyloxy)piperidino]methyl-1H-pyrazin-2-one] | < 0.5 | 
5 | Cc1ccccc1OCC1(O)CCN(Cc2ccc[nH]c2=O)CC1 [Example 252, 3-[4-Hydroxy-4-(2-methylphenoxymethyl)piperidino]methyl-1H-pyridin-2-one] | 0.5 to 1 | 
6 | O=c1nccc(CCN2CCC(COc3ccccc3F)CC2)[nH]1 [Example 181, 4-[2-[4-(2-Fluorophenoxymethyl)piperidino]ethyl]-3H-pyrimidin-2-one] | < 0.5 | 
7 | O=c1[nH]cncc1CN1CCC(COc2ccccc2F)CC1 [Example 230, 5-[4-(2-Fluorophenoxymethyl)piperidino]methyl-3H-pyrimidin-4-one] | < 0.5 | 
8 | Cc1ccccc1OCC1(CCc2ccccc2F)CCN(Cc2ccc[nH]c2=O)CC1 [Example 128, 3-[4-[2-(2-Fluorophenyl)ethyl]-4-(2-methylphenoxymethyl)piperidino]methyl-1H-pyridin-2-one] | 0.5 to 1 | 
9 | Cc1ccccc1C#CC1(O)CCN(Cc2ccc[nH]c2=O)CC1 [Example 259, 3-[4-Hydroxy-4-[(2-methylphenyl)ethynyl]piperidino]methyl-1H-pyridin-2-one] | < 0.5 | 
10 | O=C(Cc1ccccc1F)C1CCN(CCc2cncc(=O)[nH]2)CC1 [Example 237, 6-[2-[4-[2-(2-Fluorophenyl)acetyl]piperidino]ethyl]-1H-pyrazin-2-one] | 0.5 to 1 | 
11 | COC(Cc1ccccc1F)C1CCN(Cc2ncc[nH]c2=O)CC1 (stereo not shown) [Example 190, 3-[4-[2-(2-Fluorophenyl)-1-methoxyethyl]piperidino]methyl-1H-pyrazin-2-one] |  | 1.2
12 | O=c1[nH]ccnc1CN1CCOC(/C=C/c2ccccc2F)C1 (stereo not shown) [Example 341, (E)-3-[3-[2-(2-Fluorophenyl)vinyl]morpholin-1-yl]methyl-1H-pyrazin-2-one] |  | 7.1
13 | O=c1[nH]ccnc1CN1CCC(C(Cc2ccccc2F)=NO)CC1 [Example 202, 3-[4-[1-Hydroxyimino-2-(2-fluorophenyl)ethyl]piperidino]methyl-1H-pyrazin-2-one] |  | 4.9
14 | CC(C(=O)C1CCN(Cc2ncc[nH]c2=O)CC1)c1ccccc1F (stereo not shown) [Example 349, 3-[4-[2-(2-Fluorophenyl)propionyl]piperidino]methyl-1H-pyrazin-2-one] |  | 8.9
15 | O=c1[nH]cccc1CN1CCC(CCc2ccccc2F)(COc2ccccc2F)CC1 [Example 127, 3-[4-(2-Fluorophenoxymethyl)-4-[2-(2-fluorophenyl)ethyl]piperidino]methyl-1H-pyridin-2-one] | 0.5 to 1 | 
16 | O=c1cncc(CCN2CCC(/C=C/c3ccccc3F)CC2)[nH]1 [Example 234, (E)-6-[2-[4-(2-(2-Fluorophenyl)vinyl]piperidino]ethyl]-1H-pyrazin-2-one] | 0.5 to 1 | 
17 | CCOC(=O)C1(CCc2ccccc2)CCN(Cc2ncc[nH]c2=O)CC1 [Example 216, 3-[4-(Ethoxycarbonyl)-4-(2-phenylethyl)piperidino]methyl-1H-pyrazin-2-one] |  | 3.2

Row | Compound | ED50 [1] [mg/kg] | IC50 (sodium channels) [µM]
18 | O=c1cncc(CCN2CCC(COc3cccc(F)c3F)CC2)[nH]1 [Example 242, 6-[2-[4-(2,3-Difluorophenoxymethyl)piperidino]ethyl]-1H-pyrazin-2-one] |  | 6.2
19 | O=c1[nH]ccnc1CN1CCC(O)(C#Cc2ccccc2F)CC1 [Example 217, 3-[4-(2-Fluorophenyl)ethynyl-4-hydroxypiperidino]methyl-1H-pyrazin-2-one] |  | 1.8
20 | O=c1ccnc(CN2CCC(COc3ccccc3F)CC2)[nH]1 [Example 137, 2-[4-(2-Fluorophenoxymethyl)piperidino]methyl-3H-pyrimidin-4-one] | 0.5 to 1 | 
21 | O=c1[nH]ccnc1CN1CCOC(COc2ccccc2F)C1 (stereo not shown) [Example 342, 3-[3-(2-Fluorophenoxymethyl)morpholin-1-yl]methyl-1H-pyrazin-2-one] |  | 3
22 | O=c1[nH]ccnc1CN1CCC(CSc2ccccc2F)CC1 [Example 336, 3-[4-[(2-Fluorophenylthio)methyl]piperidino]methyl-1H-pyrazin-2-one] |  | 4.7
23 | O=c1[nH]ccnc1CN1CCC(c2nc(-c3ccccc3)no2)CC1 [Example 215, 3-[4-(3-Phenyl-1,2,4-oxadiazol-5-yl)piperidino]methyl-1H-pyrazin-2-one] |  | 4.1
24 | Cc1ccccc1C#CC1(O)CCN(Cc2ncc[nH]c2=O)CC1 [Example 218, 3-[4-(2-Methylphenyl)ethynyl-4-hydroxypiperidino]methyl-1H-pyrazin-2-one] |  | 3.6
25 | O=c1[nH]ccnc1CN1CCC(O)(COc2ccccc2F)CC1 [Example 211, 3-[4-Hydroxy-4-(2-fluorophenoxymethyl)piperidino]methyl-1H-pyrazin-2-one] |  | 8.2
26 | Cc1ccccc1OCC1(C#N)CCN(Cc2ncc[nH]c2=O)CC1 [Example 121, 1-(3-Oxo-3,4-dihydro-2-pyrazinylmethyl)-4-(2-methylphenoxymethyl)piperidine-4-carbonitrile] |  | 5.7
27 | O=c1[nH]ccnc1CN1CCC(CS(=O)(=O)c2ccccc2F)CC1 [Example 338, 3-[4-[(2-Fluorophenylsulfonyl)methyl]piperidino]methyl-1H-pyrazin-2-one] |  | 9.8
28 | COc1ccccc1CCC1CCCN(Cc2ncc[nH]c2=O)C1 (stereo not shown) [Example 155, 3-[3-[2-(2-Methoxyphenyl)ethyl]piperidino]methyl-1H-pyrazin-2-one] |  | 3.5
29 | O=C(Cc1ccccc1F)C1(F)CCN(Cc2ncc[nH]c2=O)CC1 [Example 370, 3-[4-Fluoro-4-[2-(2-fluorophenyl)acetyl]piperidino]methyl-1H-pyrazin-2-one] |  | 9.6
30 | CC1(COc2ccccc2F)CCN(Cc2ncc[nH]c2=O)CC1 [Example 406, 3-[4-(2-Fluorophenoxymethyl)-4-methylpiperidino]methyl-1H-pyrazin-2-one] |  | 3
31 | O=C(Cc1ccccc1OC(F)(F)F)C1CCN(Cc2ncc[nH]c2=O)CC1 [Example 345, 3-[4-[2-[2-(Trifluoromethoxy)phenyl]acetyl]piperidino]methyl-1H-pyrazin-2-one] |  | 2.1
32 | O=c1cncc(CCN2CCC(O)(C#Cc3ccccc3F)CC2)[nH]1 [Example 120, 6-[2-[4-Hydroxy-4-[(2-fluorophenyl)ethynyl]piperidino]ethyl]-1H-pyrazin-2-one] |  | 8.5
33 | O=C(Cc1ccccc1Br)C1CCN(Cc2ncc[nH]c2=O)CC1 [Example 362, 3-[4-[2-(2-Bromophenyl)acetyl]piperidino]methyl-1H-pyrazin-2-one] |  | 4.5
34 | O=c1cncc(CCN2CCC(COc3cccc(F)c3)CC2)[nH]1 [Example 238, 6-[2-[4-(3-Fluorophenoxymethyl)piperidino]ethyl]-1H-pyrazin-2-one] |  | 5.6
